Legend:
[1] = target: T1, Epidermal growth factor receptor (Homo sapiens, UniProt P00533); test: Tested in vitro for inhibition of EGF-receptor tyrosine kinase
[2] = target: T2, Proto-oncogene tyrosine-protein kinase Src (Gallus gallus, UniProt P00523); test: Tested for inhibition of protein tyrosine kinase c-Src phosphorylation
[3] = target: Vascular endothelial growth factor receptor 2 (Homo sapiens, UniProt P35968); test: Tested in vitro for inhibition of KDR-receptor tyrosine kinase
[4] = target: Cyclin-dependent kinase 1 (Homo sapiens, UniProt P06493); test: Tested in vitro for inhibition of serine/threonine kinase Cdc2
Cyclin-dependent kinase 1, sequence (P06493 whole entry): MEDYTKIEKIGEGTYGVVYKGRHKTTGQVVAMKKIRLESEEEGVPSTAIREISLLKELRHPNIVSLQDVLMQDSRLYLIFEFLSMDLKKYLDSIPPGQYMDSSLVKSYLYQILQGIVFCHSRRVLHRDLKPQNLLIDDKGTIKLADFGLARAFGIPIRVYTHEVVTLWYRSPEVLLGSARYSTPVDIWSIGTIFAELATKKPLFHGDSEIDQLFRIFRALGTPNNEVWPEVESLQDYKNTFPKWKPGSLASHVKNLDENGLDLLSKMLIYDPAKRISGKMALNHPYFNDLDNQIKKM

[5] = target: Tyrosine-protein kinase ABL (Homo sapiens, UniProt P00519+P42684); test: Tested in vitro for inhibition of non-receptor tyrosine kinase v-Abl; format: protein assay
[6] = target: Tyrosine-protein kinase CSK (Homo sapiens, UniProt P41240); test: Tested for inhibition of protein tyrosine kinase Csk phosphorylation in intact cells; format: cell-based
[7] = target: Proto-oncogene tyrosine-protein kinase Src (Gallus gallus) (UniProt P00523); test: Tested for inhibition of protein tyrosine kinase c-Src phosphorylation in intact cells
[8] = target: Platelet-derived growth factor receptor (Mus musculus, UniProt P05622+P26618); test: Inhibition of PDGF-receptor kinase; format: protein-complex assay
[9] = target: T1, Epidermal growth factor receptor; test: Tested for inhibition of EGF-receptor tyrosine kinase in intact cells
[10] = target: T2, Proto-oncogene tyrosine-protein kinase Src; test: Inhibition of protein tyrosine kinase c-Src

Vascular endothelial growth factor receptor 2, sequence (P35968 whole entry): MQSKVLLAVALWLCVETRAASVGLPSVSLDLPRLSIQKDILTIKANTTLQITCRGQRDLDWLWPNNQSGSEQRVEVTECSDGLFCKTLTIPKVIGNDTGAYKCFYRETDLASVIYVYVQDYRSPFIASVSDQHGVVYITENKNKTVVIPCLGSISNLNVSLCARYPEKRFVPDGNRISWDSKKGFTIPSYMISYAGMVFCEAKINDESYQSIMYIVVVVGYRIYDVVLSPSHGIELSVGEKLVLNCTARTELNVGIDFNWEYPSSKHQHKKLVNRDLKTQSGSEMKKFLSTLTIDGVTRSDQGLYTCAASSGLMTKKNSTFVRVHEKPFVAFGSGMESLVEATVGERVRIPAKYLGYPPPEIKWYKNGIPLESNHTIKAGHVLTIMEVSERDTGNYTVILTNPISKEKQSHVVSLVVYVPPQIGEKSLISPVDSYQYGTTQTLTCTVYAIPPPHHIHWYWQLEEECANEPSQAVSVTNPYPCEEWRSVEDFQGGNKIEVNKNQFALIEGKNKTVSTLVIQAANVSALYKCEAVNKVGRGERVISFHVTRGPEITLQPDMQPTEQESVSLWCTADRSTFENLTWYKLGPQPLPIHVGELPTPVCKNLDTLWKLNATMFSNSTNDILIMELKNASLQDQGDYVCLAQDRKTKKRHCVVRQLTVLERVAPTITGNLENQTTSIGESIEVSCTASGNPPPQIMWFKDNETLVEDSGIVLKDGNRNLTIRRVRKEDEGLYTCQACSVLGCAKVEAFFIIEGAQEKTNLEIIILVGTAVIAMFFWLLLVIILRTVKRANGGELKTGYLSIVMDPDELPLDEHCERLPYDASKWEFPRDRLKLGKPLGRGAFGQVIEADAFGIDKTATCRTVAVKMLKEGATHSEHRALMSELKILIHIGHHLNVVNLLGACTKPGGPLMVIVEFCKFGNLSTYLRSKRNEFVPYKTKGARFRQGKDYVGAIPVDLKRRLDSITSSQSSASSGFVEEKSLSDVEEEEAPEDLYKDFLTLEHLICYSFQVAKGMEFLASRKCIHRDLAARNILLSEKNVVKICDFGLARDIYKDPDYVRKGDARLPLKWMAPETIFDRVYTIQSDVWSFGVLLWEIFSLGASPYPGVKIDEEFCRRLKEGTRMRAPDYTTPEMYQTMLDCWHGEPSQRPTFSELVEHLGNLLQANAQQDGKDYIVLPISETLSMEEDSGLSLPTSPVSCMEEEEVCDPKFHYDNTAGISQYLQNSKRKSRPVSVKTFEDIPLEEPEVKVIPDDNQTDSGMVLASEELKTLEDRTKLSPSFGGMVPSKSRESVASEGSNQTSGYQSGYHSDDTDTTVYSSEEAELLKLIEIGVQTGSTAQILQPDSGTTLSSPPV
T1 sequence (P00533 whole entry): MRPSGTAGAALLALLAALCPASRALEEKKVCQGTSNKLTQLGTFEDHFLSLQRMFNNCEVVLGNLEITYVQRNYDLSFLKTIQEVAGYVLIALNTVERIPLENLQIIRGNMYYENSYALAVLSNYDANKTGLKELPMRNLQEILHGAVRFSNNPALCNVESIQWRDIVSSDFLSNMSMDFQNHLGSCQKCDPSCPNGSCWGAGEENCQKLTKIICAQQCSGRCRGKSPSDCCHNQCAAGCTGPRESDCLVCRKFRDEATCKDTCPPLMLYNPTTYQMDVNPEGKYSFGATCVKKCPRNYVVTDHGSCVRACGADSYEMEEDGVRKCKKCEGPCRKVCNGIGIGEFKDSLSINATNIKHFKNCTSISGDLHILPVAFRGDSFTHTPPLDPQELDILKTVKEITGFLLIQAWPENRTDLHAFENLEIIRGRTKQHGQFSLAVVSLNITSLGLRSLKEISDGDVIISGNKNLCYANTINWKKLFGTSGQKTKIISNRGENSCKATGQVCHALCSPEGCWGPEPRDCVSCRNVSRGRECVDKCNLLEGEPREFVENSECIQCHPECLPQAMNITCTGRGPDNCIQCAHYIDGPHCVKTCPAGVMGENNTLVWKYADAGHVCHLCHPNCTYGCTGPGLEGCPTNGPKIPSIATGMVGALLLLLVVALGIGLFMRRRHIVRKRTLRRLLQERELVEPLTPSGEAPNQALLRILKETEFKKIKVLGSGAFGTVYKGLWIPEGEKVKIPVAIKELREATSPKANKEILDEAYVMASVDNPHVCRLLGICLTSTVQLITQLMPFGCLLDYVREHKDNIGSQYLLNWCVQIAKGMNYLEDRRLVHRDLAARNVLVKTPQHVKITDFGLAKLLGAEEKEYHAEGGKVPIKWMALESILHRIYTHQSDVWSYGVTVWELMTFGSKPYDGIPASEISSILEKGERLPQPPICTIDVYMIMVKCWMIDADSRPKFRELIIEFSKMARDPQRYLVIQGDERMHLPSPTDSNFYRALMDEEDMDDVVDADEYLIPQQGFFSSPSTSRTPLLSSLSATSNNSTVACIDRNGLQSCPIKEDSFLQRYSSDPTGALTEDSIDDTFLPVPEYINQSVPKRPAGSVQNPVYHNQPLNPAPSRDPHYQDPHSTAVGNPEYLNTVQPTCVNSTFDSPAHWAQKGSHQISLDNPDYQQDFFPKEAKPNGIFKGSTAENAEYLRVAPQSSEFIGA

Row | SMILES | IC50 [1] | IC50 [2] | IC50 [3] | IC50 [4] | IC50 [5] | IC50 [6] | IC50 [7] | IC50 [8] | IC50 [9] | IC50 [10]
1 | Nc1ncnc2c1c(-c1ccccc1)cn2-c1ccccc1 |  | 100 nM |  | 54000 nM | 20 nM | > 5000 nM | 3500 nM |  |  | 
2 | COc1cccc(-c2cn(-c3ccccc3)c3ncnc(N)c23)c1 |  | 50 nM | > 1000 nM | 43000 nM | 60 nM | > 5000 nM | 3300 nM | 2500 nM |  | 
3 | O=c1[nH]cnc2c1c(-c1ccccc1)cn2-c1ccccc1 |  | 10000 nM |  |  |  |  |  |  |  | 
4 | COc1ccc(-c2cn(-c3ccccc3)c3ncnc(N)c23)cc1 | 350 nM | 150 nM | 200 nM | > 10000 nM | 400 nM |  |  |  |  | 
5 | Clc1ncnc2c1c(-c1ccccc1)cn2-c1ccccc1 |  | 8000 nM |  |  |  |  |  |  |  | 
6 | CCOC(=O)c1ccc(-c2cn(-c3ccccc3)c3ncnc(N)c23)cc1 | 1300 nM | 10000 nM | 1100 nM | > 10000 nM | > 10000 nM |  |  |  |  | 
7 | COc1cccc(-c2cn(-c3ccc(CC(=O)NCCO)cc3)c3ncnc(N)c23)c1 | 800 nM | 20 nM | > 1000 nM | > 10000 nM | 220 nM | > 5000 nM | 3900 nM |  |  | 
8 | CNc1ncnc2c1c(-c1ccccc1)cn2-c1ccccc1 | 31000 nM | > 10000 nM |  | > 10000 nM | > 10000 nM |  |  |  |  | 
9 | COc1cccc(-c2cn(-c3cccc(CO)c3)c3ncnc(N)c23)c1 | 800 nM | 60 nM | > 1000 nM | 33000 nM | 50 nM |  |  |  |  | 
10 | Cc1ccccc1-c1cn(-c2ccccc2)c2ncnc(N)c12 | 2650 nM | 6000 nM |  | 90000 nM |  |  |  |  |  | 
11 | COc1cccc(-c2cn(-c3ccc(CCN(C)CCO)cc3)c3ncnc(N)c23)c1 | 300 nM | 30 nM | > 1000 nM | > 10000 nM | 300 nM | > 5000 nM | 200 nM | 300 nM | 10000 nM | 
12 | Nc1ncnc2c1c(-c1ccccc1)nn2-c1ccccc1 |  |  |  |  |  |  |  |  |  | 500 nM

Now from value to compound:

Row | IC50 [1] | IC50 [2] | IC50 [3] | IC50 [4] | IC50 [5] | IC50 [6] | IC50 [7] | IC50 [8] | IC50 [9] | IC50 [10] | SMILES
13 | 700 nM | 20 nM | 600 nM | 30000 nM | 70 nM |  |  |  |  |  | Nc1ncnc2c1c(-c1ccccc1)cn2-c1ccc(CO)cc1
14 | 600 nM | 60 nM |  | 47000 nM | 200 nM | > 5000 nM | > 5000 nM | 10000 nM | 12000 nM |  | Nc1ncnc2c1c(-c1ccccc1)cn2-c1cccc(CO)c1
15 | 1400 nM | 30 nM |  | 82500 nM | 1000 nM | 4300 nM | 700 nM |  |  |  | Nc1ncnc2c1c(-c1ccccc1)cn2-c1ccc(CNCCO)cc1
16 | 6400 nM | 5000 nM |  | > 10000 nM |  |  |  |  |  |  | Nc1ncnc2c1c(-c1ccccc1)cn2-c1ccccc1CNCCO
17 | 3400 nM | 10 nM | 3600 nM | > 10000 nM |  | 5000 nM | 4000 nM |  |  |  | Nc1ncnc2c1c(-c1ccccc1)cn2-c1cccc(CNCCO)c1
18 | 1100 nM | 300 nM |  | > 10000 nM | 3400 nM |  |  |  |  |  | Nc1ncnc2c1c(-c1ccccc1)cn2-c1ccccc1CO
19 | 300 nM | 30 nM | > 1000 nM | > 10000 nM | 230 nM | > 5000 nM | 500 nM | 600 nM | 6400 nM |  | COc1cccc(-c2cn(-c3ccc(CNCCO)cc3)c3ncnc(N)c23)c1
20 | 700 nM | 200 nM | 1000 nM | > 100000 nM | 600 nM |  |  |  |  |  | Nc1ncnc2c1c(-c1cccc(Cl)c1)cn2-c1ccccc1
